Values quoted from earlier work in US9540691B2, “Assays and methods for selecting a treatment regimen for a subject with depression” (THE GENERAL HOSPITAL CORPORATION, priority 2011, dated 2017).
Where two headings read alike, the source gives them in different places.

Test system: adults with DSM-IV MDD, partial or nonresponse to an SSRI
Conditions: cited from earlier work

## Nc1nc(=O)c2c([nH]1)NCC(CNc1ccc(C(=O)N[C@@H](CCC(=O)O)C(=O)O)cc1)N2C=O (mixture of isomers) [Folinic acid]
16 completers, decreased from 19.1+/−3.9, p<0.01
  HAM-D-17 score after treatment: 12.8+/−7.0
ITT sample
  remission (HAM-D-17 no greater than 7): 18%
completers
  remission (HAM-D-17 no greater than 7): 19%
  response (at least 50% reduction in HAM-D-17): 31%
Folinic acid 15-30 mg/day added to SSRIs, 8 weeks, rose from 28+/−19, p<0.001
  Folate levels after treatment: 301 ± 203 ng/mL
intent-to-treat (ITT) sample
  response (at least 50% reduction in HAM-D-17): 27%
